According to publication PMC3482212, “Autoinducers Act as Biological Timers in Vibrio harveyi” (PLoS ONE, 2012):

How the values were obtained:
LuxN = LuxN (Vibrio campbellii, UniProt A7MRY4); experiment: biochemical; settings: read-out: % inhibition at 10 μM
[1] = biological target: T1, LuxPQ (LuxQ in interplay with LuxP) (Vibrio harveyi, UniProt P54300); experiment: inhibition of LuxU phosphorylation by [gamma-32P]ATP, membrane vesicles, SDS-PAGE autoradiography; assay type: biochemical; settings: read-out: half-maximal inhibition
T1 construct: full-length wild-type LuxQ with C-terminal His6 in inverted membrane vesicles of E. coli TKR2000 (pNKQ); read-out phosphorylation of purified His6-LuxU; with Autoinducer 2 sensor kinase/phosphatase LuxQ
T1 sequence (P54302 whole entry): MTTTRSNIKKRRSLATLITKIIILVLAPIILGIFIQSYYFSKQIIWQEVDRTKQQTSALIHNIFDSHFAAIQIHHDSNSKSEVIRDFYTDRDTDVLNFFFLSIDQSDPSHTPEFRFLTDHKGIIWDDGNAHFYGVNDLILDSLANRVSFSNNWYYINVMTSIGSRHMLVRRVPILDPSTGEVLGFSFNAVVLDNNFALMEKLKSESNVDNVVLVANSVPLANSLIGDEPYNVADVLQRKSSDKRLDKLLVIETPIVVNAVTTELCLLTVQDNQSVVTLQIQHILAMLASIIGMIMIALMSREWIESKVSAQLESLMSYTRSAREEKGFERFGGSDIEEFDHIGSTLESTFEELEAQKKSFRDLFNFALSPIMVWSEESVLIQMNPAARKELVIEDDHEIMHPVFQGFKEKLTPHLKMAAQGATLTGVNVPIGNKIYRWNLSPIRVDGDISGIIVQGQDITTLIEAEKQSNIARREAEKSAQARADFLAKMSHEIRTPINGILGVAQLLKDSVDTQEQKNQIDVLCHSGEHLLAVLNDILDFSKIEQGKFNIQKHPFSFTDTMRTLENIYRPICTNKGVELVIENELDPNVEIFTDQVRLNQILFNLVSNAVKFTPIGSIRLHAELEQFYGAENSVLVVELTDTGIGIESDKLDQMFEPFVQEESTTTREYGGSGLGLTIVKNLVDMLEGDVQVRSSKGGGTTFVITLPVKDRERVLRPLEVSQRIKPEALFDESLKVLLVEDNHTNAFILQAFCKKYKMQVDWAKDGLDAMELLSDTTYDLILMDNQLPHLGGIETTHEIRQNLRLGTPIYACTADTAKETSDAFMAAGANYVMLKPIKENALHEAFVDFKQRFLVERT
T1 sequence (P54300 24-365): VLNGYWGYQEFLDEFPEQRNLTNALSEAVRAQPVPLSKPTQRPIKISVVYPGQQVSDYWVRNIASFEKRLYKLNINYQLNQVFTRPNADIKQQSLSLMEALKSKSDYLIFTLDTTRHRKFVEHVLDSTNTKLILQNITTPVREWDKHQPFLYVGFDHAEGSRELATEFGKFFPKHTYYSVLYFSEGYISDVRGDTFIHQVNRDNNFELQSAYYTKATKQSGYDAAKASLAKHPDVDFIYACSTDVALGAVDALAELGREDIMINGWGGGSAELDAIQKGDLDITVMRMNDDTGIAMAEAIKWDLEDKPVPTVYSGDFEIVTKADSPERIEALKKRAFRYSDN

Chain of LuxN (A7MRY4 whole entry): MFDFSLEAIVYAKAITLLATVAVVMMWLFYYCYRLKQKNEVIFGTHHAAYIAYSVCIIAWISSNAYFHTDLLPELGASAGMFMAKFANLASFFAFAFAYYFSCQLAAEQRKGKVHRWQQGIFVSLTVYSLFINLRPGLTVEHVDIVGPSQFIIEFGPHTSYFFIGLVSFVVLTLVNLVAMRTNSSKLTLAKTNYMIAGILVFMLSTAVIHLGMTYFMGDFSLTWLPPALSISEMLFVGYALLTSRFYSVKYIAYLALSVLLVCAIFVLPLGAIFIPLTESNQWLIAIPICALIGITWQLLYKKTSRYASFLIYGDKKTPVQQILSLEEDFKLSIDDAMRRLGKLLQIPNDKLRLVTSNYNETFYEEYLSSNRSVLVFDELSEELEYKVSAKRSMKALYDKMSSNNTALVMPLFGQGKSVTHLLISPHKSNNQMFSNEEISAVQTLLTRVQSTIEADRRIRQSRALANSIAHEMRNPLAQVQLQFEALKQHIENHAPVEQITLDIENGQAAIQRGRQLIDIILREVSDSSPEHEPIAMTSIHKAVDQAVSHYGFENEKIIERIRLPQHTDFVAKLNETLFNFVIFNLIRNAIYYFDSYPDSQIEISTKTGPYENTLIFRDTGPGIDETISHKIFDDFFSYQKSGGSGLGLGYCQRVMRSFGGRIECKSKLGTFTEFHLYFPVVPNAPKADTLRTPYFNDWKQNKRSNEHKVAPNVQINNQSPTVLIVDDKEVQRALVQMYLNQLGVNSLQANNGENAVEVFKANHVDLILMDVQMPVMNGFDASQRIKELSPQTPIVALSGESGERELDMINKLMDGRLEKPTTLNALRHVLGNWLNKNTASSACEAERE

C[C@@H](O)CC(=O)N[C@H]1CCOC1=O [HAI-1, N-(3-hydroxybutyryl)-homoserine lactone]
inhibition at 10 µM (LuxN): 57%

C[C@]12OC[C@H](O)[C@@]1(O)O[B-](O)(O)O2 [AI-2]
IC50 [1]: 5 µM
